Entries after “also recorded” stand apart in the source; their conditions may differ. Values belong to the compound of their own block, whether it stands above or below them.
Tests used:
[1] = tested on: two melanoma (A375, WM164) and four prostate cancer cell lines (LNCaP, PC-3, Du 145, PPC-1); assay: Antiproliferative activity, all six cancer cell lines together; format: cell-based, human; details: for fold decrease in potency compared with parent compound: average IC50 versus parent ABI-I compound (1a, 1c); for IC50: Homo sapiens, read-out: IC50 values (range over the cancer cell lines)
MDR cancer cell lines = assay: Antiproliferative activity, MDR cancer cell lines; format: cell-based; details: Homo sapiens, read-out: potency on resistant (MDR) cancer cell lines (range)
[2] = tested on: nonresistant cancer cell lines; assay: Antiproliferative activity, nonresistant cancer cell lines; format: cell-based; details: Homo sapiens, read-out: potency on nonresistant cancer cell lines (range)
Bovine brain tubulin = assay: In vitro microtubule polymerization assay; format: biochemical; details: after 15 min, absorbance at 340 nm, 37 °C
[3] = In vitro metabolic stability, human liver microsomes; details: 50 µM; LC-MS/MS metabolite identification
[4] = In vitro metabolic stability, dog liver microsomes; format: in vitro ADME
[5] = In vitro metabolic stability, mouse liver microsomes; details: 50 µM; LC-MS/MS metabolite identification
[6] = In vitro metabolic stability, rat liver microsomes; details: 50 µM; LC-MS/MS metabolite identification
PC-3-TxR = assay: Antiproliferative activity, paclitaxel-resistant PC-3-TxR; format: cell-based, human; details: IC50 on PC-3-TxR divided by IC50 on PC-3
DU145-TxR = assay: Antiproliferative activity, paclitaxel-resistant DU145-TxR; format: cell-based, human

Structure (SMILES): COc1cc(C(=O)c2c[nH]c(-c3ccc(C)cc3)n2)cc(OC)c1O [2a, (4-Hydroxy-3,5-dimethoxyphenyl)(2-(p-tolyl)-1H-imidazol-4-yl)methanone]
fold decrease in potency compared with parent compound [1]: 10-to 20 fold

Structure (SMILES): COc1cc(C(=O)c2c[nH]c(-c3ccc(Cl)cc3)n2)cc(OC)c1O [2c, (2-(4-Chlorophenyl)-1H-imidazol-4-yl)(4-hydroxy-3,5-dimethoxyphenyl)methanone]
fold decrease in potency compared with parent compound [1]: 10-to 20 fold

Structure (SMILES): COc1cc(C(=O)c2cn(Cc3ccccc3)c(-c3ccc(C)cc3)n2)cc(OC)c1OC [3aa, (1-Benzyl-2-(p-tolyl)-1H-imidazol-4-yl)(3,4,5-trimethoxyphenyl)methanone]
fold decrease in potency compared with parent compound [1]: 90 fold

Structure (SMILES): COc1cc(C(=O)c2cn(C)c(-c3ccc(C)cc3)n2)cc(OC)c1OC [3ab]
IC50 (MDR cancer cell lines): 50 to 80 nM | IC50 [2]: 50 to 80 nM | inhibition of tubulin polymerization at 20 µM (Bovine brain tubulin): Complete inhibition | metabolic pathway in human liver microsomes [3]: Hydroxylation on the para-methyl of the A ring was a major metabolic pathway; also recorded: Ketone reduction was only detected in human liver microsomes; also recorded: O-demethylation was a minor metabolic pathway | half-life in dog liver microsomes (in words) ([4]; 0.5 µM compound, 1 mg/mL microsomal protein, 37 °C): slightly longer half-life than that of compound 1a | metabolic pathway in dog liver microsomes ([4]; 50 µM, LC-MS/MS metabolite identification): Hydroxylation on the para-methyl of the A ring was a major metabolic pathway; also recorded: O-demethylation was a minor metabolic pathway | metabolic pathway in mouse liver microsomes [5]: Hydroxylation on the para-methyl of the A ring was a major metabolic pathway; also recorded: O-demethylation was a minor metabolic pathway; also recorded: N-demethylation represented the major pathway | metabolic pathway in rat liver microsomes [6]: N-demethylation represented the major pathway; also recorded: Hydroxylation on the para-methyl of the A ring was a major metabolic pathway; also recorded: O-demethylation was a minor metabolic pathway

IC50 (MDR cancer cell lines): 50 to 80 nM | IC50 [2]: 50 to 80 nM
Structure (SMILES): COc1cc(C(=O)c2c[nH]c(-c3ccc(Br)cc3)n2)cc(OC)c1OC [8a, (2-(4-Bromophenyl)-1H-imidazol-4-yl)(3,4,5-trimethoxyphenyl)methanone]
Resistance index (R) PC-3-TxR (PC-3-TxR): ≈ 1 | Resistance index (R) DU145-TxR (DU145-TxR; IC50 on DU145-TxR divided by IC50 on Du145): ≈ 1 | inhibition of tubulin polymerization at 10 µM (Bovine brain tubulin; 10 µM): Complete inhibition | inhibition of tubulin polymerization at 20 µM (Bovine brain tubulin): Complete inhibition

IC50 [1]: 1000 to 10000 nM
Structure (SMILES): COc1cc(C(=O)c2cc3cc(F)ccc3[nH]2)cc(OC)c1OC [12f, (5-Fluoro-1H-indol-2-yl)(3,4,5-trimethoxyphenyl)methanone]

Structure (SMILES): COc1cc(C(=O)c2cc3ccc(Cl)cc3n2C)cc(OC)c1OC [13aa, (6-Chloro-1-methyl-1H-indol-2-yl)(3,4,5-trimethoxyphenyl)methanone]
IC50 [1]: 1000 to 10000 nM

Structure (SMILES): COc1cc(C(=O)c2cc3ccc(F)cc3n2C)cc(OC)c1OC [13b, (6-Fluoro-1-methyl-1H-indol-2-yl)(3,4,5-trimethoxyphenyl)methanone]
IC50 [1]: 1000 to 10000 nM

IC50 (MDR cancer cell lines): > 400 nM | IC50 (DU145-TxR; Homo sapiens, read-out: IC50±SEM DU145-TxR): > 3000 nM
Structure (SMILES): CC(=O)O[C@H]1C(=O)[C@@]2(C)[C@H]([C@H](OC(=O)c3ccccc3)[C@]3(O)C[C@H](OC(=O)[C@H](O)[C@@H](NC(=O)c4ccccc4)c4ccccc4)C(C)=C1C3(C)C)[C@]1(OC(C)=O)CO[C@@H]1C[C@@H]2O [Paclitaxel, reference compound]
